A short description of the data set: Formation of clear nanoemulsion formulation with substituted hydrophobic phase ingredient. The format is physicochemical. As to conditions: used as hydrophobic phase ingredient substituted into the examples; failures generally began cloudy and separated into two phases, primarily within 24 hours.

Molecules are shown by their SMILES.

The source of these data is US20180289809A1, “FORMULATIONS OF HYDROPHILIC COMPOUNDS” (BCS Business Consulting Services Pte Ltd., priority 2015, published 2018).

`CCCCCCCCCCCCCCCCCC(=O)OCCCCCCCC` [octyl stearate]: the “forms successful nanoemulsion / clear formulation” value is recorded as “did not form successful nanoemulsion formulations”.

For the molecule `CCCCC/C=C\C/C=C\CCCCCCCC(=O)Oc1c(C)c(C)c2c(c1C)CC[C@@](C)(CCC[C@H](C)CCC[C@H](C)CCCC(C)C)O2` [tocopheryl linoleate], the “forms successful nanoemulsion / clear formulation” value is “did not form successful nanoemulsion formulations”.

Regarding `C[Si]1(C)O[Si](C)(C)O[Si](C)(C)O[Si](C)(C)O[Si](C)(C)O1` [cycopentasiloxane], the “forms successful nanoemulsion / clear formulation” value was “did not form successful nanoemulsion formulations”.

Consider `CCCCC(CC)COC(=O)c1ccccc1` (stereo not shown) [ethylhexyl benzoate], for which the “forms successful nanoemulsion / clear formulation” value is on record as “did not form successful nanoemulsion formulations”.

Consider `CCCCCCCCCCCCCCCC(=O)OC(C)C` [isopropyl palmitate], for which the “forms successful nanoemulsion / clear formulation” value is “did not form successful nanoemulsion formulations”.

`CCCCCCCCCCCCCCCCOC(=O)CCCCCCC` [cetyl octanoate]: the “forms successful nanoemulsion / clear formulation” value is recorded as “did not form successful nanoemulsion formulations”.

Take `CC(C)=CCC/C(C)=C/CC/C(C)=C/CC/C=C(\C)CC/C=C(\C)CCC=C(C)C` [Squalene]: the “forms successful nanoemulsion / clear formulation” value was “did form clear formulations”.
